{
  "source": "patent US20250108064A1",
  "about": "“PHOSPHATE PRODRUGS OF CANNABINOIDS” (priority 2021, published 2025)",
  "key": {"[1]": {"test": "Plasma stability (mouse plasma)", "format": "in vitro ADME", "details": "read-out: T½ in mouse plasma (converted)"}, "[2]": {"test": "physchem", "format": "physicochemical", "details": "aqueous buffer, kinetic from dmso stock; nephelometry, PBS pH 7.0-7.3, 1% DMSO, 25° C., 90 min", "protocol": "General Experimental: Nephelometry experiments were performed using untreated Corning® Costar® 96-well black polystyrene plates with clear flat bottoms. Sample stock solutions and serial dilutions were prepared with DriSolv® DMSO purchased from MilliporeSigma. All 100-fold dilutions and replicate experiments were prepared using Gibco® Dulbecco's phosphate-buffered saline (DPBS, no calcium, no magnesium) with a pH range of 7.0-7.3 as aqueous media. […] Nephelometry data was obtained using a NEPHELOstar® microplate reader and processed with MARS data analysis software from BMG LabTech.\nProcedure for Nephelometry Experiments: Tested compounds were dissolved in 100% DMSO to make stock solutions of specified concentrations, ranging from 10 mM minimum up to 50 mM maximum. The sample then underwent serial dilution in a 96-well plate (Corning® Costar®). Well A1 of the plate contained 100% DMSO. […] Using a 12 channel multichannel pipette, 2.5 μL of sample from row A was transferred to each well in row B through row H of the plate. Next, 30 μL of PBS (pH=7.0-7.3) was added to row B through row H, providing each well with 32.5 μL. The plate was then incubated for 30 sec with shaking. Finally, 217.5 μL of PBS buffer was added to row B through row H, and the entire plate was incubated with shaking at 25° C. for 90 min. Note: The final volume of DMSO in actual experiments with PBS buffer was 1% throughout the plate. After 90 min, the 96-well plate was analyzed with a NEPHELOstar® instrument and the data was processed with MARS data analysis software."}, "[3]": {"test": "Plasma stability assay (human plasma)", "format": "in vitro ADME", "details": "37° C., read-out: T½ in human plasma (converted)", "protocol": "General Experimental: Procaine and Procainamide were purchased from Sigma-Aldrich. Human plasma was obtained from BioIVT (Cat. No. […]2N) and 1X Dulbecco's PBS (pH 7.4, Gibco) was obtained from Thermos Fischer. Stock solutions were prepared in 100% DMSO, and suitable dilutions of target analytes were prepared in methanol for method development.\nProcedure for Plasma Stability Assay: Test compounds were dissolved in DMSO to make a stock solution of 10 mM and then diluted to 500 μM in buffer (or 70% MeOH). Human plasma was thawed at ambient temperature and is aliquoted ([…]) to a 1.5 mL Eppendorf tube in duplicates (A and B) for each compound. Plasma was incubated at 37° C. for 10 minutes in an incubator shaker at 150 rpm; the reaction was initiated by the addition of the test compound (6.0 μL) and vortex mixing. The total reaction volume was 1000 μL where the final organic solvent concentrations were 0.6% MeOH and 0.03% DMSO. The spiked plasma samples were incubated at 37° C. for 4 hrs. The reactions were terminated at time points 0, 15, 30, 60, 120, 180, and 240 min by taking a 100 μL aliquot from the test incubation mixture and immediately quenching it in ice-cold acetonitrile containing internal standard (150 μL with 2 μM ISTD), followed by a quick vortex mixing. In addition, matrix blank was prepared by adding acetonitrile solutions containing ISTD to plasma samples without any of the analytes or control compounds. Also, an additional tube was made to measure compound degradation in PBS buffer. The samples were centrifuged at 15000 rpm for 25 min at 4° C. The supernatant was transferred to an LC-MS vial for analysis by LC/MS-MS. Each time point was run in duplicates followed by in-between blank washes to avoid the carryover and to equilibrate the column. Half-life (T1/2) was calculated using the data obtained from LC-MS/MS and by plotting ln (% remaining of the parent prodrug) versus time and performing linear regression to determine slope. Slope=−k and T1/2=0.693/k for first-order kinetics.\nThese positive controls were run in parallel to test the systems for competency."}},
  "data": [
    {"smiles": "C=C(C)[C@@H]1CCC(C)=C[C@H]1c1c(O)cc(CCCCC)cc1OC(=O)C1(OP(=O)(O)O)CC1.N.N", "note": "[7b, 1-((((1′R,2′R)-6-hydroxy-5′-methyl-4-pentyl-2′-(prop-1-en-2-yl)-1′,2′,3′,4′-tetrahydro-[1,1′-biphenyl]-2-yl)oxy)carbonyl)cyclopropyl phosphate di-ammonium salt]", "values": [
      {"measurement": "half-life", "setting": "[1]", "value": 3.7, "unit": "h"},
      {"measurement": "solubility", "setting": "[2]", "value": "> 500", "unit": "µM"},
      {"measurement": "half-life", "setting": "[3]", "value": 5.3, "unit": "h"}
    ]}
  ]
}
